# According to ChEMBL document CHEMBL5058649, “Data for DCP probe BAY 1816032” (2022):
# The source made the active and inactive calls. No cut-off for these calls is given here.
# Assays:
# Homo sapiens = organism: Homo sapiens; assay: Glutamate, Metabotropic, mGlu5 Eurofins-Panlabs radioligand binding assay; conditions: Compound concentration 10.0 uM
# [1] = target: T1, Mitotic checkpoint serine/threonine-protein kinase BUB1 (Homo sapiens, UniProt O43683); assay: BUB1 surface plasmon resonance (SPR) assay
# [2] = target: Melanocortin receptor 4 (Homo sapiens) (UniProt P32245); assay: Melanocortin MC4 Eurofins-Panlabs radioligand binding assay; conditions: Compound concentration 10.0 uM
# [3] = target: Mu-type opioid receptor (Homo sapiens) (UniProt P35372); conditions: Compound concentration 10.0 uM
# [4] = target: NT-3 growth factor receptor (Homo sapiens) (UniProt Q16288); assay: TRKC DiscoveRx kinase panel; conditions: Compound concentration 1.0 uM
# [5] = target: T1, Mitotic checkpoint serine/threonine-protein kinase BUB1; assay: Abrogation of histone H2A-Thr120 phosphorylation
# [6] = target: MAP kinase-activated protein kinase 5 (Homo sapiens) (UniProt Q8IW41); assay: MAPKAPK5 DiscoveRx kinase panel; conditions: Compound concentration 1.0 uM
# Bacteria = assay: Inhibition of Beta-Lactamase at 10 µM in the Eurofins-Panlabs enzyme assay (Eurofins_assay_126000); type: protein-complex assay; parameters: substrate with concentration; conditions: Compound concentration 10.0 uM
# [7] = target: Phosphatidylinositol 5-phosphate 4-kinase type-2 gamma (Homo sapiens) (UniProt Q8TBX8); assay: PIP5K2C DiscoveRx kinase panel; conditions: Compound concentration 1.0 uM
# [8] = target: Delta-type opioid receptor (Homo sapiens) (UniProt P41143); conditions: Compound concentration 10.0 uM
# [9] = target: Phosphatidylinositol 4-phosphate 5-kinase type-1 gamma (Homo sapiens) (UniProt O60331); assay: PIP5K1C DiscoveRx kinase panel; conditions: Compound concentration 1.0 uM
# [10] = target: Mitogen-activated protein kinase kinase kinase 10 (Homo sapiens) (UniProt Q02779); assay: MLK2 DiscoveRx kinase panel; conditions: Compound concentration 1.0 uM
# [11] = target: Epidermal growth factor receptor (Homo sapiens) (UniProt P00533); assay: EGFR DiscoveRx kinase panel; conditions: Compound concentration 1.0 uM
# [12] = target: Cyclin-dependent kinase 9 (Homo sapiens) (UniProt P50750); assay: CDK9 DiscoveRx kinase panel; conditions: Compound concentration 1.0 uM
# [13] = target: D(4) dopamine receptor (Homo sapiens) (UniProt P21917); conditions: Compound concentration 10.0 uM
# [14] = target: Tyrosine-protein kinase Blk (Homo sapiens) (UniProt P51451); assay: BLK DiscoveRx kinase panel; conditions: Compound concentration 1.0 uM
# [15] = target: Casein kinase II subunit alpha' (Homo sapiens) (UniProt P19784); assay: CSNK2A2 DiscoveRx kinase panel; conditions: Compound concentration 1.0 uM
# [16] = target: Glutamate NMDA receptor (Rattus norvegicus) (UniProt P35439+Q00959+Q00960+Q00961+Q62645+Q8VHN2+Q9R1M7); conditions: Compound concentration 10.0 uM
# [17] = target: D(1B) dopamine receptor (Homo sapiens) (UniProt P21918); conditions: Compound concentration 10.0 uM
# [18] = target: Dual specificity mitogen-activated protein kinase kinase 6 (Homo sapiens) (UniProt P52564); assay: MEK6 DiscoveRx kinase panel; conditions: Compound concentration 1.0 uM
# [19] = target: Serine/threonine-protein kinase D2 (Homo sapiens) (UniProt Q9BZL6); assay: PRKD2 DiscoveRx kinase panel; conditions: Compound concentration 1.0 uM
# [20] = target: Serine/threonine-protein kinase NIM1 (Homo sapiens) (UniProt Q8IY84); assay: NIM1 DiscoveRx kinase panel; conditions: Compound concentration 1.0 uM
# [21] = target: Mitogen-activated protein kinase kinase kinase 9 (Homo sapiens) (UniProt P80192); assay: MLK1 DiscoveRx kinase panel; conditions: Compound concentration 1.0 uM
# [22] = target: Tyrosine-protein kinase Srms (Homo sapiens) (UniProt Q9H3Y6); assay: SRMS DiscoveRx kinase panel; conditions: Compound concentration 1.0 uM
# [23] = target: Tyrosine-protein kinase Lck (Homo sapiens) (UniProt P06239); assay: LCK DiscoveRx kinase panel; conditions: Compound concentration 1.0 uM
# [24] = target: 5-hydroxytryptamine receptor 2A (Homo sapiens) (UniProt P28223); assay: Serotonin (5-Hydroxytryptamine) 5-HT2A Eurofins-Panlabs radioligand binding assay; conditions: Compound concentration 10.0 uM
# [25] = target: Serine/threonine-protein kinase pim-2 (Homo sapiens) (UniProt Q9P1W9); assay: PIM2 DiscoveRx kinase panel; conditions: Compound concentration 1.0 uM
# [26] = target: Tyrosine-protein kinase JAK1 (Homo sapiens) (UniProt P23458); assay: JAK1(JH1domain-catalytic) DiscoveRx kinase panel; conditions: Compound concentration 1.0 uM
# [27] = target: Mitogen-activated protein kinase 14 (Homo sapiens) (UniProt Q16539); assay: p38-alpha DiscoveRx kinase panel; conditions: Compound concentration 1.0 uM
# [28] = target: T2, Alpha-2A adrenergic receptor (Homo sapiens) (UniProt P08913); conditions: Compound concentration 10.0 uM
# T2 sequence (whole entry): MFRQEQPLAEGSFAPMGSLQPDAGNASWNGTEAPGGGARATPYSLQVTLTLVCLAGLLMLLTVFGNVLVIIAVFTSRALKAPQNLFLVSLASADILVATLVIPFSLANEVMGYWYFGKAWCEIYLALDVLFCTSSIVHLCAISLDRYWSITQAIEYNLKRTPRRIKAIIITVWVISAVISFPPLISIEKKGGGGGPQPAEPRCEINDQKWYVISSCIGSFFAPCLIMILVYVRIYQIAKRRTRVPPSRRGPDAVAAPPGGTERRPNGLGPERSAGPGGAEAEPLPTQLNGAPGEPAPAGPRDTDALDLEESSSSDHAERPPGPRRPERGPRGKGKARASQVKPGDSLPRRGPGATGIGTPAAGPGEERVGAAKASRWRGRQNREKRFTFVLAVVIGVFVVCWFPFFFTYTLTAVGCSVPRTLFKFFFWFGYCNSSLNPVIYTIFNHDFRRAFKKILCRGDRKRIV
# [29] = target: MAP/microtubule affinity-regulating kinase 3 (Homo sapiens) (UniProt P27448); assay: MARK3 DiscoveRx kinase panel; conditions: Compound concentration 1.0 uM
# [30] = target: Protein kinase C eta type (Homo sapiens) (UniProt P24723); assay: PRKCH DiscoveRx kinase panel; conditions: Compound concentration 1.0 uM
# [31] = target: Mitogen-activated protein kinase 11 (Homo sapiens) (UniProt Q15759); assay: p38-beta DiscoveRx kinase panel; conditions: Compound concentration 1.0 uM
# [32] = target: 5-hydroxytryptamine receptor 1B (Homo sapiens) (UniProt P28222); conditions: Compound concentration 10.0 uM
# [33] = target: Serine/threonine-protein kinase tousled-like 1 (Homo sapiens) (UniProt Q9UKI8); assay: TLK1 DiscoveRx kinase panel; conditions: Compound concentration 1.0 uM
# [34] = target: Dual specificity mitogen-activated protein kinase kinase 2 (Homo sapiens) (UniProt P36507); assay: MEK2 DiscoveRx kinase panel; conditions: Compound concentration 1.0 uM
# [35] = target: Serine/threonine-protein kinase PAK 2 (Homo sapiens) (UniProt Q13177); assay: PAK2 DiscoveRx kinase panel; conditions: Compound concentration 1.0 uM
# [36] = target: Serine/threonine-protein kinase PAK 4 (Homo sapiens) (UniProt O96013); assay: PAK4 DiscoveRx kinase panel; conditions: Compound concentration 1.0 uM
# [37] = target: Ephrin type-B receptor 1 (Homo sapiens) (UniProt P54762); assay: EPHB1 DiscoveRx kinase panel; conditions: Compound concentration 1.0 uM
# [38] = target: 5-hydroxytryptamine receptor 2B (Homo sapiens) (UniProt P41595); conditions: Compound concentration 10.0 uM
# [39] = target: Calcium/calmodulin-dependent protein kinase type II subunit beta (Homo sapiens) (UniProt Q13554); assay: CAMK2B DiscoveRx kinase panel; conditions: Compound concentration 1.0 uM
# [40] = target: Prostaglandin G/H synthase 2 (Homo sapiens) (UniProt P35354); assay: Cyclooxygenase COX-2 Eurofins-Panlabs enzyme assay; parameters: substrate with concentration; conditions: Compound concentration 10.0 uM
# T1 sequence (O43683 whole entry): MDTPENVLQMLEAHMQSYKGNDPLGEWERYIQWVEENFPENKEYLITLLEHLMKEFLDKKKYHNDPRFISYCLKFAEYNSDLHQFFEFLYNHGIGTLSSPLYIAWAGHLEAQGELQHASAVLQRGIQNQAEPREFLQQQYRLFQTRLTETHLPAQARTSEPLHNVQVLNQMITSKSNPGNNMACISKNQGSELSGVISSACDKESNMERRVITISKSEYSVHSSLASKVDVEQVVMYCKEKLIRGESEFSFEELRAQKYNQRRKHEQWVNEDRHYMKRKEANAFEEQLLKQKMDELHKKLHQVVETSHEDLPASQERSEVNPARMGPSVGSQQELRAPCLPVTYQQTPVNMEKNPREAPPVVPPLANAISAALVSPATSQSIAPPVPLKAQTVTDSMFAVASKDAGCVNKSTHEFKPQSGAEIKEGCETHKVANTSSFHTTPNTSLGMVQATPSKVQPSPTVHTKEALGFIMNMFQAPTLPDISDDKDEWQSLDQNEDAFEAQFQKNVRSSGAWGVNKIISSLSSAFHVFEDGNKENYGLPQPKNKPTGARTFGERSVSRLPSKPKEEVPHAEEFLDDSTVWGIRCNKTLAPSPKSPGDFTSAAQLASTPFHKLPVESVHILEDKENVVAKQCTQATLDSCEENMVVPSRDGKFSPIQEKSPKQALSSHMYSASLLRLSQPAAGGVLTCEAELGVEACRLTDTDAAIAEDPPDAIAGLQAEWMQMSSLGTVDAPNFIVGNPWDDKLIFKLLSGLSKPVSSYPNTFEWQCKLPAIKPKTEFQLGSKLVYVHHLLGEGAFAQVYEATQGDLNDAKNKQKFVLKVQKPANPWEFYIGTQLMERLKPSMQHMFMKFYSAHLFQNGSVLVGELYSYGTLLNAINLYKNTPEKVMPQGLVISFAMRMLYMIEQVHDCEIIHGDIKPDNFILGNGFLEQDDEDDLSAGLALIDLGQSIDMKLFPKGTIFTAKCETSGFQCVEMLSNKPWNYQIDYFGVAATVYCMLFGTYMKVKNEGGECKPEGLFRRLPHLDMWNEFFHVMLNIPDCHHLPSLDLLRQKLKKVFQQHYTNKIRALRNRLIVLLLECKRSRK
# Sequence of Melanocortin receptor 4 (Homo sapiens) (P32245 whole entry): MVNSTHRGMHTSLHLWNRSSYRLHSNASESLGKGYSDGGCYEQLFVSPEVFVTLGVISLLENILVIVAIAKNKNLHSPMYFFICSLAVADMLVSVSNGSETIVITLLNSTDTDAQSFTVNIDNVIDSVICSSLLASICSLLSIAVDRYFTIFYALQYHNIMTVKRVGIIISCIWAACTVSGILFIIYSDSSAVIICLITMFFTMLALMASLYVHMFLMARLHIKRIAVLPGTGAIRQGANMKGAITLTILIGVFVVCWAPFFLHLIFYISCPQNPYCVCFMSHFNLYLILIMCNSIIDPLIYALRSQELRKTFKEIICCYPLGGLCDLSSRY
# Sequence of Epidermal growth factor receptor (Homo sapiens) (P00533 whole entry): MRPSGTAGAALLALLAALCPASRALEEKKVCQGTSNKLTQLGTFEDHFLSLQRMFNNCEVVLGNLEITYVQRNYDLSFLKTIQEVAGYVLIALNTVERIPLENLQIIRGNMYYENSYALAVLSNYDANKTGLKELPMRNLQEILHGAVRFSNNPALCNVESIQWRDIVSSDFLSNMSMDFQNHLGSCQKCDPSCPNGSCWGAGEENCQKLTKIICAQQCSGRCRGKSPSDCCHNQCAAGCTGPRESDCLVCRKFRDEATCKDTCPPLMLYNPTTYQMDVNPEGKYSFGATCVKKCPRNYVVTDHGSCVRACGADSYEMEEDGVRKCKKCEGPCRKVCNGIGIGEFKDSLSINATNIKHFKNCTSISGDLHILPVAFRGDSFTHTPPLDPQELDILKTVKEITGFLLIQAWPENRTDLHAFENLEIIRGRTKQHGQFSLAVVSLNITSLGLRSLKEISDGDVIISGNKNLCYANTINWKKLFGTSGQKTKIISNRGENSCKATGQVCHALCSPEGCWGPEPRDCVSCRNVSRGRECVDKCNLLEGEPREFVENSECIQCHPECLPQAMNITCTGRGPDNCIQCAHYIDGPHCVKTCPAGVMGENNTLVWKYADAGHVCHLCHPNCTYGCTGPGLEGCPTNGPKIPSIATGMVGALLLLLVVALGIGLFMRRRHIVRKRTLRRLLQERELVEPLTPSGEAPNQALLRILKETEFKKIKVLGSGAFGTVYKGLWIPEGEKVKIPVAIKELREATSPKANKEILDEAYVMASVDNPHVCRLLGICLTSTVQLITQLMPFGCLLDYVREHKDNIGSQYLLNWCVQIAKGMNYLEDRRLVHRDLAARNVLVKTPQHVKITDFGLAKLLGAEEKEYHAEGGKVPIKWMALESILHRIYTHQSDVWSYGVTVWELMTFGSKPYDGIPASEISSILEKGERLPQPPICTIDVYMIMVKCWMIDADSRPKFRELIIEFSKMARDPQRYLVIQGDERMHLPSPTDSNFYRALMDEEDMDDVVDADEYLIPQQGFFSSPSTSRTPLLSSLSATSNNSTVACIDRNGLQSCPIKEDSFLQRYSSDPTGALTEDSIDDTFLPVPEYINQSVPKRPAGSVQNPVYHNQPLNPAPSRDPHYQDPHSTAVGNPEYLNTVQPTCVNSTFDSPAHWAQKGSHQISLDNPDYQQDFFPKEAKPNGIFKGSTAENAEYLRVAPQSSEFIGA
# Sequence of Phosphatidylinositol 5-phosphate 4-kinase type-2 gamma (Homo sapiens) (Q8TBX8 whole entry): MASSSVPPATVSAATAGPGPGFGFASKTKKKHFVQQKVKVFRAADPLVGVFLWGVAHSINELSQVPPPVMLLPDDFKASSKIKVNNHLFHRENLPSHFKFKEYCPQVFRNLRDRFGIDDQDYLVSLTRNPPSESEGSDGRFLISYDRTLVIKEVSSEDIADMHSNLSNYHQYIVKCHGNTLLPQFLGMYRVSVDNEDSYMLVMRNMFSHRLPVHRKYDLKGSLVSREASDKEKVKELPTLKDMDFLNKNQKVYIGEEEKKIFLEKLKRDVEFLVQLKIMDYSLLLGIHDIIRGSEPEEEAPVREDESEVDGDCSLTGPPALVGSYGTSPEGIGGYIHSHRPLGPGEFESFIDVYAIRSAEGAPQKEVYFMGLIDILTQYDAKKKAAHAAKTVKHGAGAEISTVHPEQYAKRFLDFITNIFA
# Sequence of Cyclin-dependent kinase 9 (Homo sapiens) (P50750 whole entry): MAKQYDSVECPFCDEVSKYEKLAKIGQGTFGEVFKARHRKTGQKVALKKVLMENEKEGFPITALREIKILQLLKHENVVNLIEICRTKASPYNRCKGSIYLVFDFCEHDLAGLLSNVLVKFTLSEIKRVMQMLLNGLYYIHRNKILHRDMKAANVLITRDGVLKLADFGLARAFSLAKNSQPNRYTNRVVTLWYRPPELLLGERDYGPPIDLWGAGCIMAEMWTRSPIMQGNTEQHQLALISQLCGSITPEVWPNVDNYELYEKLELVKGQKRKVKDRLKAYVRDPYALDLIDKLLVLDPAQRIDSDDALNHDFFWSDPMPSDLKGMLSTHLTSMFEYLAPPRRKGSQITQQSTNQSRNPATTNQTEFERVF
# Sequence of Delta-type opioid receptor (Homo sapiens) (P41143 whole entry): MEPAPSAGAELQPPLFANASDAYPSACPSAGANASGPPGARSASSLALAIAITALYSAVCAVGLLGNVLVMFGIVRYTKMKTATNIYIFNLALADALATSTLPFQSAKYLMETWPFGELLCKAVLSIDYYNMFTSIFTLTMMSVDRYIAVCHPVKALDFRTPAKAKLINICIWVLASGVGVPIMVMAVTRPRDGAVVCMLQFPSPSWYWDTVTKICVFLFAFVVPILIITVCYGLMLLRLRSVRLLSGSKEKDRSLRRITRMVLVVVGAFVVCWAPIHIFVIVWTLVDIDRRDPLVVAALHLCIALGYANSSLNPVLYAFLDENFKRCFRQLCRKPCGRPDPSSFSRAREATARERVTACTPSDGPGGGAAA
# Sequence of Casein kinase II subunit alpha' (Homo sapiens) (P19784 whole entry, looked up): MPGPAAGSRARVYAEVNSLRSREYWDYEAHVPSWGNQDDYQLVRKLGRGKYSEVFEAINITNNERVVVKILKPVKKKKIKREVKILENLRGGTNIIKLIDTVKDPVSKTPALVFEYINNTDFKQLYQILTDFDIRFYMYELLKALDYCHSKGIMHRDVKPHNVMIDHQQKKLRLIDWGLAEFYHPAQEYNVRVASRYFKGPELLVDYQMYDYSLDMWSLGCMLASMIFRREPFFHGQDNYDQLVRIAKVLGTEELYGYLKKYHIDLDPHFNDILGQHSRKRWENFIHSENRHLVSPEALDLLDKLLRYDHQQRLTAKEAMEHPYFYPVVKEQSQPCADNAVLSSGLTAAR
# Sequence of Tyrosine-protein kinase Lck (Homo sapiens) (P06239 2-509 limits assumed): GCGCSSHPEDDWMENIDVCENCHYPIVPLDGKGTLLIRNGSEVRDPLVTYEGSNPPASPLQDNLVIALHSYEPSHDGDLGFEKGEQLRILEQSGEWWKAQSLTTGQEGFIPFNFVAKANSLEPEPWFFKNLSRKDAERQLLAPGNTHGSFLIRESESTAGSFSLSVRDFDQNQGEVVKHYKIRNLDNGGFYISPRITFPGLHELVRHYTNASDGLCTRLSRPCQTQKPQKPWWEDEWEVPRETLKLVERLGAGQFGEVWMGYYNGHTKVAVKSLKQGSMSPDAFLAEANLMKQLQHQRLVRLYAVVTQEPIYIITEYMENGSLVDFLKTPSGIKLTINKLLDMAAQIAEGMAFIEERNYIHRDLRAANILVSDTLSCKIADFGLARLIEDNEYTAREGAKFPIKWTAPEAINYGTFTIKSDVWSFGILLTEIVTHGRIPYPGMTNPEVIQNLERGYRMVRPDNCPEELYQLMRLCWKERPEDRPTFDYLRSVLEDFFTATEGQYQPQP
# Sequence of Serine/threonine-protein kinase pim-2 (Homo sapiens) (Q9P1W9 whole entry, looked up): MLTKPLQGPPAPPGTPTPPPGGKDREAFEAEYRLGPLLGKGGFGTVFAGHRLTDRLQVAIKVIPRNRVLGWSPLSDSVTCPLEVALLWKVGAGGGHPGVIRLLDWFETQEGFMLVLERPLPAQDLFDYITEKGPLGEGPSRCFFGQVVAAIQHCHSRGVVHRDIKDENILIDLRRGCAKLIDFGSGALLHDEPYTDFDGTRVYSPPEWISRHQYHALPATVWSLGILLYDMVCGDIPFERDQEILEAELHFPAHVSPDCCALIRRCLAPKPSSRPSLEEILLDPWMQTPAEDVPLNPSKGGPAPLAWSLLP
smiles,measurement,setting,value
COc1cnccc1Nc1nc(-c2nn(Cc3c(F)cc(OCCO)cc3F)c3ccccc23)ncc1OC,inhibition,Homo sapiens,17%
same,Kd,[1],0.0021 µM (active)
same,inhibition,[2],10%
same,inhibition,[3],-4.25%
same,residual activity,[4],98%
same,IC50,[5],0.029 µM (active)
same,residual activity,[6],100%
same,inhibition,Bacteria,21%
same,residual activity,[7],100%
same,inhibition,[8],-6%
same,residual activity,[9],100%
same,residual activity,[10],76%
same,residual activity,[11],100%
same,residual activity,[12],99%
same,inhibition,[13],1.38%
same,residual activity,[14],88%
same,residual activity,[15],48%
same,inhibition,[16],-2%
same,inhibition,[17],-0.37%
same,residual activity,[18],89%
same,residual activity,[19],100%
same,residual activity,[20],88%
same,residual activity,[21],92%
same,residual activity,[22],100%
same,residual activity,[23],100%
same,inhibition,[24],22%
same,residual activity,[25],100%
same,residual activity,[26],90%
same,residual activity,[27],100%
same,inhibition,[28],7.49%
same,residual activity,[29],73%
same,residual activity,[30],89%
same,residual activity,[31],82%
same,inhibition,[32],11.8%
same,residual activity,[33],85%
same,residual activity,[34],94%
same,residual activity,[35],100%
same,residual activity,[36],82%
same,residual activity,[37],100%
same,inhibition,[38],22%
same,residual activity,[39],100%
same,inhibition,[40],-9%
